Measurements: patent US11046699B2, “Pyrazolo-pyrimidin-amino-cycloalkyl compounds and their therapeutic uses” (RAPT THERAPEUTICS, INC., priority 2018, dated 2021)

target: GCN2 (Homo sapiens, UniProt Q9P2K8); test: GCN2 enzymatic endpoint assay: phosphorylation of GFP-eIF2α measured by TR-FRET (Lanthascreen); format: biochemical; conditions: GCN2 biochemical IC50; 4 nM GCN2, 2 μM ATP, 80 nM GFP-eIF2α, 90 min RT; read-out: GCN2 activity
In short: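 Endpoint GCN2 reaction with low ATP (2 μM) and 80 nM GFP-eIF2α, room temperature, 90 minutes. Detection mix with EDTA and Tb-labelled antibody; 520 nm/495 nm emission ratio reported.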

Sequence of GCN2 (Q9P2K8 whole entry): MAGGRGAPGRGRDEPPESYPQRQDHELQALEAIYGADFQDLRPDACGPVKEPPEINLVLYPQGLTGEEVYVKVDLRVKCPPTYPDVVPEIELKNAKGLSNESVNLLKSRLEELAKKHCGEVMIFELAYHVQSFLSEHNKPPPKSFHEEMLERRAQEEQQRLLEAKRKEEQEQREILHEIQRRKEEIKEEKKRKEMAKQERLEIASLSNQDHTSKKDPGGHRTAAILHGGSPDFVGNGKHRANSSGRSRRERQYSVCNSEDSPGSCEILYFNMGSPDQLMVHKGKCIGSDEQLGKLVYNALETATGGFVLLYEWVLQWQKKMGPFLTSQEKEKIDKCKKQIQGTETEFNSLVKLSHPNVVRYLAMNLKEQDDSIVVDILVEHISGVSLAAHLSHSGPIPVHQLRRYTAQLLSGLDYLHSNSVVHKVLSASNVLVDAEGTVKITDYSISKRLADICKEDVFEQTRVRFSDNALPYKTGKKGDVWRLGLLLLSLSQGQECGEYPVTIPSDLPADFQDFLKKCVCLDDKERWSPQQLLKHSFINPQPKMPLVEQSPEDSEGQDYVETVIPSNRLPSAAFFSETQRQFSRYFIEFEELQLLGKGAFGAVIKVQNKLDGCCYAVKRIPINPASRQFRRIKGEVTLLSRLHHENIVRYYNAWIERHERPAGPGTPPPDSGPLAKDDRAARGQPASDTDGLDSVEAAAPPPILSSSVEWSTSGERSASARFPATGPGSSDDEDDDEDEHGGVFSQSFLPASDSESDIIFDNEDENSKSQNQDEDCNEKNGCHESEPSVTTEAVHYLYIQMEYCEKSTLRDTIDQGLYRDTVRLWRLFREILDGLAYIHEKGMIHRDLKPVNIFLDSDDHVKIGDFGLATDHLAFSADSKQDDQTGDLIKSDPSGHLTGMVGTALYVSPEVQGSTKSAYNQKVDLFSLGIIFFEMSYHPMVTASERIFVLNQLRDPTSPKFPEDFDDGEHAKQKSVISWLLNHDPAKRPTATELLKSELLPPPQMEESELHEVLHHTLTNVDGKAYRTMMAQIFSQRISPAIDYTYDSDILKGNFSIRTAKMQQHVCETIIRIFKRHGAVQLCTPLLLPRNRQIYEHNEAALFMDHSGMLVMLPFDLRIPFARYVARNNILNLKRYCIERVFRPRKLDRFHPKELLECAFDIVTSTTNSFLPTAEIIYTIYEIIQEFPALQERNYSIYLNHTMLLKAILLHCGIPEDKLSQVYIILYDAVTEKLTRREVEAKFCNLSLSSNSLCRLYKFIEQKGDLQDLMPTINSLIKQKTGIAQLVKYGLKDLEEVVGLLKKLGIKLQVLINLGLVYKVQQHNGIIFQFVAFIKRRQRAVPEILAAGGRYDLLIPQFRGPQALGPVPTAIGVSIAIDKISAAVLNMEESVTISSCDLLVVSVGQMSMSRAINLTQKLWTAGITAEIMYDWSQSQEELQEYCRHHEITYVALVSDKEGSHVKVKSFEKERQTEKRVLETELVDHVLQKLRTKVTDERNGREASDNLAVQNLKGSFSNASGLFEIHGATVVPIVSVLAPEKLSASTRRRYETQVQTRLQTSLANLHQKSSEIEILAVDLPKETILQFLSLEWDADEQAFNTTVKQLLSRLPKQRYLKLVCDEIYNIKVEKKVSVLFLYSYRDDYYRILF

With `Cc1nnc(-c2ccc(-n3nc(Br)c4cnc(N[C@@H]5CC[C@@H](P(C)(C)=O)C5)nc43)cc2)s1` [Example 57, ((1R,3R)-3-((3-bromo-1-(4-(5-methyl-1,3,4-thiadiazol-2-yl)phenyl)-1H-pyrazolo[3,4-d]pyrimidin-6-yl)amino)cyclopentyl)dimethylphosphine oxide] as the compound, how does the IC50 read?
The IC50 was 25 to 200 nM.

Which IC50 does the source give for `CNC(=O)[C@]1(CC#N)CC[C@@H](Nc2ncc3c(Br)nn(-c4cc(F)c5ncccc5c4)c3n2)C1` (single isomer, unassigned) [Example 19] here?
Its IC50 is 25 to 200 nM.

same assay, conditions: tested as described in Example 77; compound and/or hydrochloride, dihydrochloride or trifluoroacetic acid salt; read-out: IC 50 Activity

`CNC(=O)[C@]1(C)CC[C@@H](Nc2ncc3c(Br)nn(-c4ccc5c(c4)C(N)CO5)c3n2)C1` (stereo partly shown) was tested. Which IC50 did it give?
The IC50 was 25 to 200 nM.

`COCCNC(=O)C12CCC(Nc3ncc4c(Br)nn(-c5ccc6ncccc6c5)c4n3)(CC1)C2` [4-((3-bromo-1-(quinolin-6-yl)-1H-pyrazolo [3,4-d]pyrimidin-6-yl)amino)-N-(2-methoxyethyl)bicyclo[2.2.1]heptane-1-carboxamide] was tested. Which IC50 did it give?
The IC50 was 200 to 500 nM.

`CNC(=O)CCC1(C#N)CC[C@@H](Nc2ncc3c(Br)nn(-c4ccc(-c5nnc(C)s5)cc4)c3n2)C1` (stereo partly shown) was tested. Which IC50 did it give?
Its IC50 is less than 25 nM.

For `CP(C)(=O)[C@@H]1CC[C@@H](Nc2ncc3c(Br)nn(-c4cc(C5CCNC5)c5ncccc5c4)c3n2)C1` (stereo partly drawn) [3-bromo-N-[(1R,3R)-3-dimethylphosphoryl-cyclopentyl]-1-(8-pyrrolidin-3-yl-6-quinolyl) pyrazolo[3,4-d]pyrimidin-6-amine], which IC50 is on record?
The IC50 was 25 to 200 nM.

`COCCNC(=O)[C@@H]1CC[C@@H](Nc2ncc3c(Br)nn(-c4ccc5nccnc5c4)c3n2)C1` [(1R,3R)-3-((3-bromo-1-(quinoxalin-6-yl)-1H-pyrazolo[3,4-d]pyrimidin-6-yl)amino)-N-(2-methoxyethyl)cyclopentane-1-carboxamide] was tested. Which IC50 did it give?
Its IC50 is 25 to 200 nM.

Which IC50 does the source give for `CNC(=O)[C@]1(C)CC[C@@H](Nc2ncc3c(Br)nn(-c4ccc5c(c4)CCC(=O)N5CC#N)c3n2)C1` [(1R,3R)-3-[[3-bromo-1-[1-(cyano-methyl)-2-oxo-3,4-dihydroquinolin-6-yl]pyrazolo[3,4-d]pyrimidin-6-yl]amino]-N,1-dimethyl-cyclopentane-carboxamide] here?
Its IC50 is 25 to 200 nM.

How did the IC50 turn out when `CNC(=O)[C@]1(C)CC[C@@H](Nc2ncc3c(Br)nn(-c4cc(CN5CCNCC5=O)c5ncccc5c4)c3n2)C1` [(1R,3R)-3-[[3-bromo-1-[8-[(2-oxopiperazin-1-yl)methyl]-6-quinolyl]pyrazolo[3,4-d]pyrimidin-6-yl]amino]-N,1-dimethyl-cyclopentanecarboxamide] was run?
Its IC50 is 25 to 200 nM.

`C[C@@]1(C(=O)O)CC[C@@H](Nc2ncc3c(Br)nn(-c4cc(CCN)c5ncccc5c4)c3n2)C1` [(1R,3R)-3-[[1-[8-(2-aminoethyl)-6-quinolyl]-3-bromo-pyrazolo[3,4-d]pyrimidin-6-yl]amino]-1-methyl-cyclopentanecarboxylic acid] was tested. Which IC50 did it give?
Its IC50 is less than 25 nM.

With `O=S(=O)(NC1CC1)[C@@H]1CC[C@@H](Nc2ncc3c(Br)nn(-c4ccc5ncccc5c4)c3n2)C1` [(1R,3R)-3-((3-bromo-1-(quinolin-6-yl)-1H-pyrazolo[3,4-d]pyrimidin-6-yl)amino)-N-cyclopropylcyclopentane-1-sulfonamide] as the compound, how does the IC50 read?
The IC50 was 25 to 200 nM.

Which IC50 does the source give for `COCCNC(=O)[C@]1(C(C)C)CC[C@@H](Nc2ncc3c(Br)nn(-c4ccc(-c5nnc(C)s5)c(CCC#N)c4)c3n2)C1` [(1R,3R)-3-[[3-bromo-1-[3-(2-cyanoethyl)-4-(5-methyl-1,3,4-thiadiazol-2-yl)phenyl]pyrazolo[3,4-d]pyrimidin-6-yl]amino]-1-isopropyl-N-(2-methoxyethyl)cyclopentane-carboxamide] here?
The IC50 was 25 to 200 nM.

Which IC50 does the source give for `CNC(=O)[C@]1(C)CC[C@@H](Nc2ncc3c(Br)nn(-c4ccc(-c5nnc(C)o5)c(CCN)c4)c3n2)C1` [(1R,3R)-3-[[1-[3-(2-aminoethyl)-4-(5-methyl-1,3,4-oxadiazol-2-yl)phenyl]-3-bromopyrazolo[3,4-d]pyrimidin-6-yl]amino]-N,1-dimethyl-cyclopentane-carboxamide] here?
The IC50 was 25 to 200 nM.
